The values below come from the Bradley open melting point set (2014).

Structures are written as SMILES.

Take `CC(C=CC=C(C)/C=C/C1=C(C)CCCC1(C)C)=CC(=O)O` [Tretinoin]: the melting point (in general, the temperature of the solid-liquid transition) was 181 °C.

Compound `NCCCCNCCCN` [spermidine] had a melting point of 24 °C. On to `c1ccc(C(c2ccccc2)c2ccccc2)cc1` [1,1',1''-Methanetriyltribenzene], for which the melting point stood at 94 °C. Turning to `CC1(C)C(=O)[C@@]2(C)CC[C@@H]1C2` [fenchone], the melting point came out at 6 °C.

`Nc1ccccc1[N+](=O)[O-]` [o-nitroaniline] returned a melting point of 73 °C.

In turn, `O=Cc1ccccc1Cl` [2-chlorobenzaldehyde] displayed a melting point of 10 °C. `CN(C)c1ccc([N+](=O)[O-])cc1` [N,N-dimethyl-4-nitroaniline]: the melting point was 165 °C. The value for `O=C(O)CCc1ccccc1` [3-phenylpropionic acid] was 48.5 °C; that for `CN1C(C(=O)Nc2ccccn2)=C(O)c2sccc2S1(=O)=O` [tenoxicam] was 211 °C; that for `Clc1ccc(NC(/N)=NC(N)=NC(C)C)cc1` [Proguanil] was 129 °C.

For `COc1cc(Cl)c(Cl)c(Cl)c1Cl` [1-Methoxy-2,3,4,5-tetrachlorobenzene], the melting point came out at 88 °C. `Cc1cc(C)nc(NS(=O)(=O)c2ccc(N)cc2)n1` [Sulfamethazine] yielded a melting point of 196 °C. The same measure for `Cc1ccccc1N` [o-toluidine]: -24 °C.

`O=Cc1ccc(O)c(O)c1O` [2,3,4-trihydroxybenzaldehyde] yielded a melting point of 167 °C. The same measure for `C[C@H]1C[C@H]2[C@@H]3CCC4=CC(=O)C=C[C@]4(C)[C@@]3(Cl)[C@@H](O)C[C@]2(C)[C@@]1(O)C(=O)CO` [Beclomethasone]: 118 °C; for `CC1(C)C(=O)N(Cl)C(=O)N1Cl` [1,3-Dichloro-5,5-dimethylimidazolidine-2,4-dione]: 135 °C; for `CC(=O)c1cccc(Br)c1` [3'-bromoacetophenone]: 8 °C.

For `Cc1cccc(Cl)c1N` [2-chloro-6-methylaniline], the melting point came to 2 °C. The same measure for `CCCCC(CC)CO` (stereo not drawn) [2-ethyl-1-hexanol]: -76 °C; for `N#CCS(=O)(=O)c1ccc(F)cc1` [4-fluorophenylsulfonylacetonitrile]: 91 °C; for `Brc1ccc(Br)c(Br)c1` [1,2,4-Tribromobenzene]: 44 °C. With `CCOC(=O)c1ccc(O)cc1` [ethyl 4-hydroxybenzoate], the melting point amounted to 117 °C. With `O=C(Cl)c1cccc2ccccc12` [1-naphthoyl chloride], the melting point turned out to be 18 °C.

In the case of `OB(O)c1cccc2ncccc12` [quinoline-5-boronic acid], the melting point turned out to be 146 °C. Compound `CC(N)C(=O)O` (stereo not drawn) [alanine] yielded a melting point of 292 °C. In turn, `CCCCCCCCC(=O)OCC` [ethyl nonanoate] came in with a melting point of -44 °C.

Turning to `Oc1ccccc1Cl` [o-chlorophenol], the melting point amounted to 8 °C.

`O=Cc1ccc2c(c1[N+](=O)[O-])C(=O)c1c(Cl)c(Cl)c(Cl)c(Cl)c1C2=O` came in with a melting point of 267 °C. The same measure for `Cc1ccc(N)c(N)c1` [3,4-diaminotoluene]: 88 °C. The value for `Nc1cc2ccccc2oc1=O` [3-aminocoumarin] was 136 °C; that for `[O-][I+3]([O-])([O-])O` [periodic acid] was 128 °C; that for `O=C(O)COc1ccccc1Cl` [2-chlorophenoxyacetic acid] was 150 °C. `CC(C)(C)OC(=O)N1CCC[C@@H]1C(=O)O` [N-boc-D-proline] returned a melting point of 134 °C. The same measure for `O=Cc1ccc(C=O)cc1` [terephthalaldehyde]: 116 °C.

The compound `O=[N+]([O-])c1c(Cl)c(Cl)cc(Cl)c1Cl` [2,3,5,6-tetrachloronitrobenzene] showed a melting point of 100 °C. The value for `BrC(Br)C(Br)Br` [1,1,2,2-Tetrabromoethane] was 0 °C; that for `NC(=O)c1ccccc1O` [Salicylamide] was 142 °C; that for `CCCCCCCCCC(C)=O` [2-undecanone] was 12 °C. The same measure for `Cc1ccc(C)c(N)c1` [2,5-Xylidine]: 15.5 °C; for `O=C1C(=O)c2ccccc2-c2ccccc21` [9,10-phenanthrenequinone]: 210 °C; for `C[C@@H](O)[C@@H](C)O` [(2R,3R)-Butane-2,3-diol]: 16 °C. The value for `O=[N+]([O-])c1ccc(Cl)cc1` [1-chloro-4-nitrobenzene] was 84 °C; that for `CCCC(C)(CO)CO` [2-methyl-2-propyl-1,3-propanediol] was 55 °C.

Consider `COc1cc[n+]([O-])cc1` [4-methoxypyridine n-oxide], for which the melting point amounted to 102 °C. Consider `Cc1ccc(-c2ccc(/C=C/C(=O)c3ccccc3)o2)cc1` [(2E)-3-[5-(4-Methylphenyl)-2-furyl]-1-phenylprop-2-en-1-one], for which the melting point turned out to be 101 °C. `O[C@H](c1ccccc1)[C@@H](O)c1ccccc1` [meso-hydrobenzoin] showed a melting point of 135 °C. The value for `CC(=O)Nc1ccc(C(=O)O)cc1` [4-acetamidobenzoic acid] was 260 °C. The value for `CCCCCCCC(=O)OCC` [ethyl octanoate] was -47 °C; that for `O=C(O)c1ccccc1` [benzoic acid] was 122 °C; that for `COc1cc(NS(=O)(=O)c2ccc(N)cc2)nc(OC)n1` [sulfadimethoxine] was 204 °C. The same measure for `OC[C@@H]1CCCN2CCCC[C@H]12` [lupinine]: 64 °C; for `O[C@H]1O[C@H](COCc2ccccc2)[C@@H](OCc2ccccc2)[C@H](OCc2ccccc2)[C@H]1OCc1ccccc1` [2,3,4,6-tetra-o-benzyl-alpha-D-glucopyranose]: 151 °C; for `O=C(O)c1cc2cc(Br)ccc2c(Br)c1O` [1,6-dibromo-2-hydroxynaphthalene-3-carboxylic acid]: 251 °C. In turn, `Nc1cc(N2CCCCC2)nc(N)[n+]1[O-]` [Minoxidil] showed a melting point of 248 °C.

`CCOC(=O)/C=C\C(=O)OCC` [Diethyl (2Z)-but-2-enedioate]: the melting point is -10 °C. The value for `O=[N+]([O-])c1ccc(N2CCOCC2)cc1` [4-(4-nitrophenyl)morpholine] was 150 °C; that for `CC(Oc1cc(Cl)c(Cl)cc1Cl)C(=O)O` (stereo not drawn) [2-(2,4,5-Trichlorophenoxy)propanoic acid] was 176 °C.

For `N#CC(=Cc1ccc(Cl)cc1)C(N)=O` [3-(4-chlorophenyl)-2-cyanoacrylamide], the melting point is 101 °C.

With `COC(=O)c1c(N)sc2c1CCCC2`, the melting point is 128 °C. As to `O=C(O)C1COc2ccccc2O1` (stereo not drawn) [1,4-benzodioxane-2-carboxylic acid], the melting point was 124 °C. The value for `O[C@H](CS)[C@H](O)CS` (racemic) [1,4-dithio-dl-threitol] was 42 °C; that for `COc1ccc(Cc2cnc(N)nc2N)cc1OC` [diaveridine] was 233 °C. With `O=C(O)c1cc(Br)cc(Br)c1` [3,5-dibromobenzoic acid], the melting point turned out to be 220 °C.
